Test results from ChEMBL document CHEMBL4813917, “2-((1-Phenyl-1H-1,2,3-triazol-4-yl)methyl)-2-azabicyclo[3.2.1]octan-3-one derivatives: Simplification and modification of aconitine scaffold for the discovery of novel anticancer agents” (Eur J Med Chem, 2021).
The source made the active and inactive calls. The calls are words filed in the database; no cut-off is given here.

How the values were obtained:
SW-620 [1] = assay: Induction of apoptosis in human SW-620 cells assessed as early apoptotic cells at 20 nM measured after 24 hrs by Annexin V/PI staining based flow cytometry method (reference value: 1.7%); type: functional
SW-620 [2] = assay: Cell cycle arrest in human SW-620 cells assessed as accumulation of cells in G0/G1 phase at 20 to 80 nM measured after 24 hrs by PI staining based flow cytometry method; type: functional; details: dose 20-80 nM
SW-620 [3] = assay: Induction of apoptosis in human SW-620 cells assessed as late apoptotic cells at 20 nM measured after 24 hrs by Annexin V/PI staining based flow cytometry method (reference value: 1.3%); type: functional
SW-620 [4] = assay: Induction of apoptosis in human SW-620 cells assessed as increase in Bax levels at 20 to 80 nM measured after 24 hrs by Western blot assay; type: functional, cell-based; details: dose 20-80 nM
LoVo [5] = assay: Induction of apoptosis in human LoVo cells assessed as early apoptotic cells at 80 nM measured after 24 hrs by Annexin V/PI staining based flow cytometry method (reference value: 1.6%); type: functional
LoVo [6] = assay: Induction of apoptosis in human LoVo cells assessed as late apoptotic cells at 80 nM measured after 24 hrs by Annexin V/PI staining based flow cytometry method (reference value: 1.6%); type: functional
LoVo [7] = assay: Induction of apoptosis in human LoVo cells assessed as viable cells at 20 nM measured after 24 hrs by Annexin V/PI staining based flow cytometry method (reference value: 93.5%); type: functional; details: read-out: Activity
OVCAR-3 = assay: Antiproliferative activity against human OVCAR-3 cells assessed as inhibition of cell proliferation measured after 24 hrs by MTT assay; type: functional, cell-based; details: OVCAR-3, 24 h
SW-620 [8] = assay: Induction of apoptosis in human SW-620 cells assessed as necrotic cells at 20 nM measured after 24 hrs by Annexin V/PI staining based flow cytometry method (reference value: 3%); type: functional
[9] = Cytotoxicity against human L02 cells assessed as reduction in cell viability measured after 24 hrs by MTT assay; type: cell-based
SW-620 [10] = assay: Induction of apoptosis in human SW-620 cells assessed as increase in cleaved caspase-3 levels at 20 to 80 nM measured after 24 hrs by Western blot assay; type: functional, cell-based; details: dose 20-80 nM
[11] = Cytotoxicity against human HPDE6c7 cells assessed as reduction in cell viability measured after 24 hrs by MTT assay; type: functional
LoVo [12] = assay: Induction of apoptosis in human LoVo cells assessed as necrotic cells at 20 nM measured after 24 hrs by Annexin V/PI staining based flow cytometry method (reference value: 1.3%); type: functional
SW-620 [13] = assay: Induction of apoptosis in human SW-620 cells assessed as late apoptotic cells at 80 nM measured after 24 hrs by Annexin V/PI staining based flow cytometry method (reference value: 1.3%); type: functional
LoVo [14] = assay: Induction of apoptosis in human LoVo cells assessed as increase in cleaved caspase-3 levels at 20 to 80 nM measured after 24 hrs by Western blot assay; type: functional, cell-based; details: dose 20-80 nM
SW-620 [15] = assay: Induction of apoptosis in human SW-620 cells assessed as early apoptotic cells at 40 nM measured after 24 hrs by Annexin V/PI staining based flow cytometry method (reference value: 1.7%); type: functional
LoVo [16] = assay: Induction of apoptosis in human LoVo cells assessed as viable cells at 80 nM measured after 24 hrs by Annexin V/PI staining based flow cytometry method (reference value: 93.5%); type: functional; details: read-out: Activity
SW-620 [17] = assay: Antitumour activity against human SW-620 cells xenografted in Balb/c mouse assessed as increase in cleaved-caspase 3 expression in tumour at 5 mg/kg, ip measured after 21 days immunochemical staining method; type: functional, organism-based; details: time 21.0 day
LoVo [18] = assay: Induction of apoptosis in human LoVo cells assessed as necrotic cells at 40 nM measured after 24 hrs by Annexin V/PI staining based flow cytometry method (reference value: 1.3%); type: functional
[19] = Toxicity in Balb/c mouse xenografted with human SW-620 cells assessed as changes in body weight at 5 mg/kg, ip measured after 21 days; type: organism-based; details: in vivo, 504 h, time 21 day
PANC-1 = assay: Antiproliferative activity against human PANC-1 cells assessed as inhibition of cell proliferation measured after 24 hrs by MTT assay; type: functional, cell-based; details: PANC-1, 24 h
SW-620 [20] = assay: Induction of apoptosis in human SW-620 cells assessed as viable cells at 20 nM measured after 24 hrs by Annexin V/PI staining based flow cytometry method (reference value: 94%); type: functional; details: read-out: Activity
LoVo [21] = assay: Inhibition of cell migration in human LoVo cells at 20 to 80 nM measured after 24 hrs by wound healing assay; type: functional, cell-based; details: dose 20-80 nM
SW-620 [22] = assay: Induction of apoptosis in human SW-620 cells assessed as necrotic cells at 80 nM measured after 24 hrs by Annexin V/PI staining based flow cytometry method (reference value: 3%); type: functional
HepG2 = assay: Antiproliferative activity against human HepG2 cells assessed as inhibition of cell proliferation measured after 24 hrs by MTT assay; type: functional, cell-based; details: HepG2, 24 h
LoVo [23] = assay: Induction of apoptosis in human LoVo cells assessed as decrease in Bcl-2 levels at 20 to 80 nM measured after 24 hrs by Western blot assay; type: functional, cell-based; details: dose 20-80 nM
SW-620 [24] = assay: Induction of apoptosis in human SW-620 cells assessed as early apoptotic cells at 80 nM measured after 24 hrs by Annexin V/PI staining based flow cytometry method (reference value: 1.7%); type: functional
LoVo [25] = assay: Induction of apoptosis in human LoVo cells assessed as late apoptotic cells at 40 nM measured after 24 hrs by Annexin V/PI staining based flow cytometry method (reference value: 1.6%); type: functional
SW-620 [26] = assay: Induction of apoptosis in human SW-620 cells assessed as decrease in Bcl-2 levels at 20 to 80 nM measured after 24 hrs by Western blot assay; type: functional, cell-based; details: dose 20-80 nM
[27] = Cytotoxicity against human IOSE80 cells assessed as reduction in cell viability measured after 24 hrs by MTT assay; type: cell-based
LoVo [28] = assay: Induction of apoptosis in human LoVo cells assessed as late apoptotic cells at 20 nM measured after 24 hrs by Annexin V/PI staining based flow cytometry method (reference value: 1.6%); type: functional
SW-620 [29] = assay: Antitumour activity against human SW-620 cells xenografted in Balb/c mouse assessed as decrease in Ki67 expression in tumour at 5 mg/kg, ip measured after 21 days immunochemical staining method; type: functional, organism-based; details: time 21.0 day
A549 = assay: Antiproliferative activity against human A549 cells assessed as inhibition of cell proliferation measured after 24 hrs by MTT assay; type: functional, cell-based; details: A549, 24 h
[30] = Cytotoxicity against human MRC5 cells assessed as reduction in cell viability measured after 24 hrs by MTT assay; type: cell-based
SGC-7901 = assay: Antiproliferative activity against human SGC-7901 cells assessed as inhibition of cell proliferation measured after 24 hrs by MTT assay; type: functional, cell-based; details: SGC-7901, 24 h
SW-620 [31] = assay: Inhibition of cell migration in human SW-620 cells at 20 to 80 nM measured after 24 hrs by wound healing assay; type: functional, cell-based; details: dose 20-80 nM
[32] = molecular target: Heat shock protein HSP 90-alpha (Homo sapiens, UniProt P07900); assay: Inhibition of recombinant human N terminal his-tagged HSP90 alpha (1 to 732 residues) expressed in Escherichia coli measured after 60 mins by Flourescence polarization assay
LoVo [33] = assay: Antiproliferative activity against human LoVo cells assessed as inhibition of cell proliferation measured after 24 hrs by MTT assay; type: functional, cell-based

CC1(C)[C@H]2CC[C@]1(C)N(Cc1cn(-c3cccc(Br)c3)nn1)C(=O)C2
Activity (SW-620 [1]): 5.1% | Activity (SW-620 [2]): Active | Activity (SW-620 [3]): 8.5% | Activity (SW-620 [4]): Active | Activity (LoVo [5]): 7.4% | Activity (LoVo [6]): 24.9% | viability at 0.02 µM (LoVo [7]): 91.9% | IC50 (OVCAR-3): 0.03 µM | Activity (SW-620 [8]): 2.5% | CC50 at 24 h [9]: 10.5 µM | Activity (SW-620 [10]): Active | CC50 [11]: 13.8 µM | Activity (LoVo [12]): 1.9% | Activity (SW-620 [13]): 29.3% | Activity (LoVo [14]): Active | Activity (SW-620 [15]): 8.1% | viability at 0.08 µM (LoVo [16]): 61.7% | Activity (SW-620 [17]): Active | Activity (LoVo [18]): 1.6% | Activity [19]: Non-Toxic | IC50 (PANC-1): 0.09 µM | viability at 0.02 µM (SW-620 [20]): 83.9% | inhibition (LoVo [21]): Dose-Dependent Effect | Activity (SW-620 [22]): 3.7% | IC50 (HepG2): 0.02 µM | Activity (LoVo [23]): Active | Activity (SW-620 [24]): 20.6% | Activity (LoVo [25]): 5.4% | Activity (SW-620 [26]): Active | CC50 at 24 h [27]: 9.55 µM | Activity (LoVo [28]): 3.1% | Activity (SW-620 [29]): Active | IC50 (A549): 0.09 µM | CC50 at 24 h [30]: 38.8 µM | IC50 (SGC-7901): 0.12 µM | inhibition (SW-620 [31]): Dose-Dependent Effect | IC50 [32]: 0.00071 µM | IC50 (LoVo [33]): 0.03 µM
